From US20240325398A1, “COMBINATION THERAPIES” (Infinity Pharmaceuticals, Inc., priority 2014, published 2024)
Counter-ions that a name gives are not always drawn.

Assays:
KARPAS-299 = experiment: Combination study, ATPLite 72 h, dose matrix (Synergy Score, CI50); conditions: combination with Compound 1
SU-DHL-4-epst = experiment: as above; conditions: combination with Compound 1, 72 h
Farage = experiment: as above; conditions: combination with Compound 1; Farage; 72 h
WSU-NHL = experiment: as above; conditions: combination with Compound 1, 72 h
NCI-H929 = experiment: as above; conditions: combination with Compound 1
RPMI-8226 = experiment: as above; conditions: combination with Compound 1
GRANTA-519 = experiment: as above; conditions: combination with Compound 1
Protocol: (§1) Cells are thawed from a liquid nitrogen preserved state. Once cells have been expanded and divide at their expected doubling times, screening begins. Cells are seeded in growth media in either black 1536-well or 384-well tissue culture treated plates. Cells are then equilibrated in assay plates via centrifugation and placed in incubators attached to the Dosing Modules at 37° C. for 24 hours before treatment. […] These Tzero (To) plates are read using ultra-sensitive luminescence on Envision plate readers (Perkin Elmer). Treated assay plates are incubated with compound for 72 hours. After 72 hours, plates are developed for endpoint analysis using ATPLite. All data points are collected via automated processes, quality controlled and analyzed using Zalicus software.
(§2) where T is treated cell count and V is untreated (vehicle) cell count (at 72 hours). I ranges from 0% (when T=V) to 100% (when T=0). […] The measure of effect in the experiment can be the inhibition of cellular response relative to the untreated level (vehicle alone). […] The inhibition ranges from 0% at the untreated level to 100% when T=0. Inhibition levels are negative for agents that actually increase levels. Other effect measures, such as an activity ratio r=T/V may be more appropriate for some assays. When activity ratios (e.g, fold increase over stimulated control) are being used, the effect can be measured using an induction 1=ln(T/V). With this definition, all effect expressions are the same as for inhibition.
(§3) Growth Inhibition (GI) is used as a measure of cell viability. […] A GI reading of 100% represents complete growth inhibition—T72 compound-treated and T0 vehicle signals are matched. […] A GI reading of 200% represents complete death of all cells in the culture well. Compounds reaching an activity plateau of GI 200% are considered cytotoxic. GI is calculated by applying the following test and equation:
(§4) Combination analysis data were collected in a 6×6 dose matrix. Synergy is calculated by comparing a combination's response to those of its single compound, against the drug-with-itself dose-additive reference model. Deviations from dose additivity may be assessed visually on an isobologram or numerically with a Combination Index (CI). […] Additive effect is CI=1.0. […] Antagonistic effect is CI>1.0.
(§5) To measure combination effects in excess of Loewe additivity, a scalar measure to characterize the strength of synergistic interaction termed the Synergy Score is devised. The Synergy Score is calculated as:
(§6) The fractional inhibition for each component agent and combination point in the matrix is calculated relative to the median of all vehicle-treated control wells. The Synergy Score equation integrates the experimentally-observed activity volume at each point in the matrix in excess of a model surface numerically derived from the activity of the component agents using the Loewe model for additivity. Additional terms in the Synergy Score equation (above) are used to normalize for various dilution factors used for individual agents and to allow for comparison of synergy scores across an entire experiment. The inclusion of positive inhibition gating or an Idata multiplier removes noise near the zero effect level, and biases results for synergistic interactions at that occur at high activity levels.
Loewe Volume (Loewe Vol) is used to assess the overall magnitude of the combination interaction in excess of the Loewe additivity model. Loewe Volume is particularly useful when distinguishing synergistic increases in a phenotypic activity (positive Loewe Volume) versus synergistic antagonisms (negative Loewe Volume). […] This model defines additivity as a non-synergistic combination interaction where the combination dose matrix surface should be indistinguishable from either drug crossed with itself.

U-2932 = experiment: as above; conditions: combination with Compound 1, 72 h
Protocol: as §1, §2, §3, §4, §5, §6
(§7) Loewe Volume (Loewe Vol) is used to assess the overall magnitude of the combination interaction in excess of the Loewe additivity model. Loewe Volume is particularly useful when distinguishing synergistic increases in a phenotypic activity (positive Loewe Volume) versus synergistic antagonisms (negative Loewe Volume). […] This model defines additivity as a non-synergistic combination interaction where the combination dose matrix surface should be indistinguishable from either drug crossed with itself. The calculation for Loewe additivity is:

OCI-Ly3 = experiment: as above; conditions: combination with Compound 1; OCI-Ly3; 72 h
Protocol: as §1, §2, §3, §4, §5, §6, §7

SU-DHL-10-epst = experiment: as above; conditions: combination with Compound 1, 72 h
Protocol: as §1
(§8) The measure of effect in the experiment can be the inhibition of cellular response relative to the untreated level (vehicle alone). […] The inhibition ranges from 0% at the untreated level to 100% when T=0. Inhibition levels are negative for agents that actually increase levels.
as §3, §4, §5, §6, §7

OMP-2 = experiment: as above; conditions: combination with Compound 1; OPM-2
[1] = as above; conditions: combination with Compound 1; OPM-2
RL = experiment: as above; conditions: combination with Compound 1, 72 h
TMD8 = experiment: as above; conditions: combination with Compound 1; TMD8; 72 h
DOHH-2 = experiment: as above; conditions: combination with Compound 1, 72 h
Protocol: as §1, §8, §3, §4, §5, §6, §7

OCI-Ly7 = experiment: as above; conditions: combination with Compound 1, 72 h
HH = experiment: as above; assay type: cell-based; conditions: combination with Compound 1
Protocol: The method is described as follows.
Additive effect is CI=1.0. […] Antagonistic effect is CI>1.0.
The Synergy Score is calculated as: […]

KARPAS-422 = experiment: as above; conditions: combination with Compound 1, 72 h
Mino = experiment: as above; conditions: combination with Compound 1
Jeko-1 = experiment: as above; conditions: combination with Compound 1
HBL-1 = experiment: as above; conditions: combination with Compound 1, 72 h
Protocol: as §1, §2, §3, §4, §5, §6, §7

Q: Which CI50 growth inhibition (KARPAS-299) does the source give for `COc1cccc2c1C(=O)c1c(O)c3c(c(O)c1C2=O)C[C@@](O)(C(=O)CO)C[C@@H]3O[C@H]1C[C@H](N)[C@H](O)[C@H](C)O1` [Doxorubicin HCl] here?
A: U (U=0.7 to <1)

Q: And the CI50 inhibition (KARPAS-299)?
A: U (U=0.7 to <1)

Q: What about the “Synergy Score growth inhibition” value (KARPAS-299) of the same compound?
A: A2 (A2=1 to <3)

Q: And the “Synergy Score inhibition” value (KARPAS-299)?
A: A1 (A1=0.0001 to <1)

Q: And the CI50 growth inhibition (SU-DHL-4-epst)?
A: U (U=0.7 to <1)

Q: And the CI50 inhibition (SU-DHL-4-epst)?
A: W (W=≥1)

Q: And the “Synergy Score growth inhibition” value (SU-DHL-4-epst)?
A: A3 (A3=>3)

Q: What about the “Synergy Score inhibition” value (SU-DHL-4-epst) of the same compound?
A: A2 (A2=1 to <3)

Q: And the CI50 growth inhibition (Farage)?
A: U (U=0.7 to <1)

Q: What about the CI50 inhibition (Farage) of the same compound?
A: T (T=0.5 to <0.7)

Q: And the “Synergy Score growth inhibition” value (Farage)?
A: A3 (A3=>3)

Q: What about the “Synergy Score inhibition” value (Farage) of the same compound?
A: A1 (A1=0.0001 to <1)

Q: What about the CI50 growth inhibition (WSU-NHL) of the same compound?
A: T (T=0.5 to <0.7)

Q: And the CI50 inhibition (WSU-NHL)?
A: S (S=0.01 to <0.5)

Q: What about the “Synergy Score growth inhibition” value (WSU-NHL) of the same compound?
A: A3 (A3=>3)

Q: And the “Synergy Score inhibition” value (WSU-NHL)?
A: A2 (A2=1 to <3)

Q: And the CI50 growth inhibition (NCI-H929)?
A: U (U=0.7 to <1)

Q: And the CI50 inhibition (NCI-H929)?
A: U (U=0.7 to <1)

Q: What about the “Synergy Score growth inhibition” value (NCI-H929) of the same compound?
A: A3 (A3=>3)

Q: What about the “Synergy Score inhibition” value (NCI-H929) of the same compound?
A: A1 (A1=0.0001 to <1)

Q: What about the CI50 growth inhibition (RPMI-8226) of the same compound?
A: U (U=0.7 to <1)

Q: What about the CI50 inhibition (RPMI-8226) of the same compound?
A: W (W=≥1)

Q: And the “Synergy Score growth inhibition” value (RPMI-8226)?
A: A3 (A3=>3)

Q: What about the “Synergy Score inhibition” value (RPMI-8226) of the same compound?
A: A2 (A2=1 to <3)

Q: And the CI50 growth inhibition (GRANTA-519)?
A: S (S=0.01 to <0.5)

Q: And the CI50 inhibition (GRANTA-519)?
A: W (W=≥1)

Q: What about the “Synergy Score growth inhibition” value (GRANTA-519) of the same compound?
A: A3 (A3=>3)

Q: And the “Synergy Score inhibition” value (GRANTA-519)?
A: A1 (A1=0.0001 to <1)

Q: And the CI50 growth inhibition (U-2932)?
A: U (U=0.7 to <1)

Q: What about the CI50 inhibition (U-2932) of the same compound?
A: W (W=≥1)

Q: What about the “Synergy Score growth inhibition” value (U-2932) of the same compound?
A: A2 (A2=1 to <3)

Q: And the “Synergy Score inhibition” value (U-2932)?
A: A1 (A1=0.0001 to <1)

Q: What about the CI50 growth inhibition (OCI-Ly3) of the same compound?
A: U (U=0.7 to <1)

Q: And the CI50 inhibition (OCI-Ly3)?
A: W (W=≥1)

Q: And the “Synergy Score growth inhibition” value (OCI-Ly3)?
A: A2 (A2=1 to <3)

Q: What about the “Synergy Score inhibition” value (OCI-Ly3) of the same compound?
A: A1 (A1=0.0001 to <1)

Q: What about the CI50 growth inhibition (SU-DHL-10-epst) of the same compound?
A: T (T=0.5 to <0.7)

Q: What about the CI50 inhibition (SU-DHL-10-epst) of the same compound?
A: T (T=0.5 to <0.7)

Q: What about the “Synergy Score growth inhibition” value (SU-DHL-10-epst) of the same compound?
A: A3 (A3=>3)

Q: What about the “Synergy Score inhibition” value (SU-DHL-10-epst) of the same compound?
A: A2 (A2=1 to <3)

Q: What about the CI50 inhibition (OMP-2) of the same compound?
A: W (W=≥1)

Q: What about the “Synergy Score growth inhibition” value (OMP-2) of the same compound?
A: A2 (A2=1 to <3)

Q: What about the “Synergy Score inhibition” value (OMP-2) of the same compound?
A: A1 (A1=0.0001 to <1)

Q: What about the CI50 growth inhibition [1] of the same compound?
A: W (W=≥1)

Q: And the CI50 growth inhibition (RL)?
A: U (U=0.7 to <1)

Q: What about the CI50 inhibition (RL) of the same compound?
A: W (W=≥1)

Q: And the “Synergy Score growth inhibition” value (RL)?
A: A2 (A2=1 to <3)

Q: What about the “Synergy Score inhibition” value (RL) of the same compound?
A: A1 (A1=0.0001 to <1)

Q: What about the CI50 growth inhibition (TMD8) of the same compound?
A: T (T=0.5 to <0.7)

Q: And the CI50 inhibition (TMD8)?
A: T (T=0.5 to <0.7)

Q: And the “Synergy Score growth inhibition” value (TMD8)?
A: A3 (A3=>3)

Q: What about the “Synergy Score inhibition” value (TMD8) of the same compound?
A: A2 (A2=1 to <3)

Q: What about the CI50 growth inhibition (DOHH-2) of the same compound?
A: T (T=0.5 to <0.7)

Q: And the CI50 inhibition (DOHH-2)?
A: T (T=0.5 to <0.7)

Q: What about the “Synergy Score growth inhibition” value (DOHH-2) of the same compound?
A: A3 (A3=>3)

Q: And the “Synergy Score inhibition” value (DOHH-2)?
A: A2 (A2=1 to <3)

Q: What about the CI50 growth inhibition (OCI-Ly7) of the same compound?
A: S (S=0.01 to <0.5)

Q: And the CI50 inhibition (OCI-Ly7)?
A: S (S=0.01 to <0.5)

Q: And the “Synergy Score growth inhibition” value (OCI-Ly7)?
A: A3 (A3=>3)

Q: And the “Synergy Score inhibition” value (OCI-Ly7)?
A: A2 (A2=1 to <3)

Q: And the CI50 growth inhibition (HH)?
A: W (W=≥1)

Q: What about the CI50 inhibition (HH) of the same compound?
A: T (T=0.5 to <0.7)

Q: And the “Synergy Score growth inhibition” value (HH)?
A: A3 (A3=>3)

Q: What about the “Synergy Score inhibition” value (HH) of the same compound?
A: A2 (A2=1 to <3)

Q: What about the CI50 growth inhibition (KARPAS-422) of the same compound?
A: W (W=≥1)

Q: And the CI50 inhibition (KARPAS-422)?
A: W (W=≥1)

Q: What about the “Synergy Score growth inhibition” value (KARPAS-422) of the same compound?
A: A1 (A1=0.0001 to <1)

Q: And the “Synergy Score inhibition” value (KARPAS-422)?
A: A1 (A1=0.0001 to <1)

Q: What about the CI50 growth inhibition (Mino) of the same compound?
A: T (T=0.5 to <0.7)

Q: What about the CI50 inhibition (Mino) of the same compound?
A: T (T=0.5 to <0.7)

Q: What about the “Synergy Score growth inhibition” value (Mino) of the same compound?
A: A3 (A3=>3)

Q: And the “Synergy Score inhibition” value (Mino)?
A: A2 (A2=1 to <3)

Q: What about the CI50 growth inhibition (Jeko-1) of the same compound?
A: T (T=0.5 to <0.7)

Q: What about the CI50 inhibition (Jeko-1) of the same compound?
A: U (U=0.7 to <1)

Q: And the “Synergy Score growth inhibition” value (Jeko-1)?
A: A3 (A3=>3)

Q: And the “Synergy Score inhibition” value (Jeko-1)?
A: A1 (A1=0.0001 to <1)

Q: What about the CI50 growth inhibition (HBL-1) of the same compound?
A: S (S=0.01 to <0.5)

Q: And the CI50 inhibition (HBL-1)?
A: U (U=0.7 to <1)

Q: And the “Synergy Score growth inhibition” value (HBL-1)?
A: A3 (A3=>3)

Q: And the “Synergy Score inhibition” value (HBL-1)?
A: A1 (A1=0.0001 to <1)
